Reference: patent US20230266302A1, “SYNTHESIS AND USE OF N-BENZYL SULFONAMIDES” (THE UNIVERSITY OF TULSA, priority 2020, published 2023)

Experiments:
Assay in all cases: ATP level assay (CellTiter-Glo), percent of control
Format in all cases: cell-based
HeLa (cervical cancer) = settings: two hour incubation; for activity at 100 µM: Homo sapiens, HeLa, 2 h, compound alone, control DMSO, read-out: POC (percent of control) HeLa
PC3 (prostate cancer) = settings: two hour incubation; for activity at 100 µM: 2 h, compound alone, control DMSO, read-out: POC (percent of control) PC3
HDF (normal cells) = settings: two hour incubation; for activity at 100 µM: 2 h, compound alone, control DMSO, read-out: POC (percent of control) HDF
SkBr3 (breast cancer) = settings: two hour incubation; for activity at 100 µM: Homo sapiens, SK-BR-3, 2 h, compound alone, control DMSO, read-out: POC (percent of control) SkBr3
MDA-MB (breast cancer) = settings: two hour incubation; for activity at 100 µM: 2 h, compound alone, control DMSO, read-out: POC (percent of control) MDA-MB
[1] = system: MCF10A (non-cancerous breast); settings: two hour incubation; for activity at 100 µM: Homo sapiens, MCF-10A, 2 h, compound alone, control DMSO, read-out: POC (percent of control) MCF10A
NCI-H196 (lung cancer) = settings: two hour incubation; for activity at 100 µM: NCI-H196, 2 h, compound alone, control DMSO, read-out: POC (percent of control) NCI-H196
H293 (kidney cancer) = settings: two hour incubation; for activity at 100 µM: 2 h, compound alone, control DMSO, read-out: POC (percent of control) H293
[2] = system: BxPC3 (pancreatic cancer); settings: two hour incubation; for activity at 100 µM: Homo sapiens, BXPC-3, 2 h, compound alone, control DMSO, read-out: POC (percent of control) BxPC3
MCF7 (breast cancer) = settings: two hour incubation; for activity at 100 µM: Homo sapiens, MCF7, 2 h, compound alone, control DMSO, read-out: POC (percent of control) MCF7
T47D (breast cancer) = settings: two hour incubation; for activity at 100 µM: Homo sapiens, T47D, 2 h, compound alone, control DMSO, read-out: POC (percent of control) T47D
[3] = compound 100 uM + 2DG (about 10-20 mM)
[4] = compound 100 uM + rotenone (approximately 1.25 μM)

Row | Structure (SMILES) | activity at 100 µM (HeLa (cervical cancer)) | POC (percent of control) HeLa (HeLa (cervical cancer); [3]) | POC (percent of control) HeLa (HeLa (cervical cancer); [4]) | activity at 100 µM (PC3 (prostate cancer)) | POC (percent of control) PC3 (PC3 (prostate cancer); [3]) | POC (percent of control) PC3 (PC3 (prostate cancer); [4]) | activity at 100 µM (HDF (normal cells)) | POC (percent of control) HDF (HDF (normal cells); [3]) | POC (percent of control) HDF (HDF (normal cells); [4]) | activity at 100 µM (SkBr3 (breast cancer)) | POC (percent of control) SkBr3 (SkBr3 (breast cancer); [3]) | POC (percent of control) SkBr3 (SkBr3 (breast cancer); [4]) | activity at 100 µM (MDA-MB (breast cancer)) | POC (percent of control) MDA-MB (MDA-MB (breast cancer); [3]) | POC (percent of control) MDA-MB (MDA-MB (breast cancer); [4]) | activity at 100 µM [1] | POC (percent of control) MCF10A [1, 3] | POC (percent of control) MCF10A [1, 4] | activity at 100 µM (NCI-H196 (lung cancer)) | POC (percent of control) NCI-H196 (NCI-H196 (lung cancer); [3]) | other results
1 | Cc1cccc2[nH]cc(CNS(=O)(=O)c3ccc(Cl)cc3)c12 [Compound 30, 4-chloro-N-[(4-methyl-1H-indol-3-yl)methyl]benzenesulfonamide] | 28.5% | 17.8% of control | 58.4% of control | 7.1% | 10.6% of control | 21.7% of control | 28.2% | 28.4% of control | 66.2% of control | 64.1% | 41.3% of control | 58.2% of control | 38.6% | 41.5% of control | 48.3% of control | 30% | 8.4% of control | 34.6% of control | 48% | 18.7% of control | POC (percent of control) NCI-H196 (NCI-H196 (lung cancer); [4]): 18.4% of control; activity at 100 µM (H293 (kidney cancer)): 14%; POC (percent of control) H293 (H293 (kidney cancer); [3]): 12.8% of control; POC (percent of control) H293 (H293 (kidney cancer); [4]): 9.5% of control; activity at 100 µM [2]: 15.8%; POC (percent of control) BxPC3 [2, 3]: 6.3% of control; POC (percent of control) BxPC3 [2, 4]: 45.7% of control; activity at 100 µM (MCF7 (breast cancer)): 37.4%; POC (percent of control) MCF7 (MCF7 (breast cancer); [3]): 11.3% of control; POC (percent of control) MCF7 (MCF7 (breast cancer); [4]): 36% of control; activity at 100 µM (T47D (breast cancer)): 16.1%; POC (percent of control) T47D (T47D (breast cancer); [3]): 13.2% of control; POC (percent of control) T47D (T47D (breast cancer); [4]): 28% of control
2 | Cc1ccc(S(=O)(=O)NCc2c[nH]c3ccccc23)cc1 [Compound 1, N-[(1H-indol-3-yl)methyl]-4-methylbenzenesulfonamide] | 95% | 66.3% of control | 78.7% of control | 91.7% | 57.3% of control | 72.6% of control | 98.5% | 85% of control | 107.7% of control | 97.7% | 72.9% of control | 91.2% of control | 78.1% | 62% of control | 80.5% of control | 73.3% | 86.7% of control | 69% of control | 90.8% | 68.8% of control | POC (percent of control) NCI-H196 (NCI-H196 (lung cancer); [4]): 83.2% of control; activity at 100 µM (H293 (kidney cancer)): 92.8%; POC (percent of control) H293 (H293 (kidney cancer); [3]): 48.2% of control; POC (percent of control) H293 (H293 (kidney cancer); [4]): 69% of control; activity at 100 µM [2]: 97.1%; POC (percent of control) BxPC3 [2, 4]: 86.6% of control; activity at 100 µM (MCF7 (breast cancer)): 103%; POC (percent of control) MCF7 (MCF7 (breast cancer); [3]): 86.8% of control; POC (percent of control) MCF7 (MCF7 (breast cancer); [4]): 79.6% of control; activity at 100 µM (T47D (breast cancer)): 53.2%; POC (percent of control) T47D (T47D (breast cancer); [3]): 43.2% of control; POC (percent of control) T47D (T47D (breast cancer); [4]): 76.6% of control
